Assay results: patent US7947708B2, “Compounds modulating C-kit activity” (Plexxikon, Inc., priority 2004, dated 2011)

Columns and labels:
[1] = test system: cells with activating c-Kit mutations in the catalytic region; conditions: Ma et al., 2002; cited from earlier work
[2] = test system: M-07e cell line; assay: M-07e cell proliferation stimulated by SCF (CellTiter-Glo growth inhibition); type: cell-based; conditions: 72 h, SCF 100 ng/ml, three days, CellTiter-Glo luminescence, read-out: IC50, growth inhibition of SCF stimulated M-07e cells
Procedure: This inhibition is measured by the effect of compound concentration on cell growth to assess IC50 values. M-07e cells were seeded at 5×10^4 cells per well of a 96 well cell culture plate in 50 μl of cell culture medium of Iscove's Medium 1× (MOD, CellGro Mediatech catalog #15-016-CV) supplemented with 10% FBS (HyClone catalog #SH30071.03). […] Cells were also treated with staurosporine as a positive control. Cells were stimulated by adding 20 μl of 600 ng/ml SCF to a final concentration of 100 ng/ml (Biosource International SCF kit ligand catalog #PHC2115) in cell culture medium. The cells were incubated at 37° C., 5% CO2 for three days. CellTiter-Glo Buffer (Promega Cell Viability Assay catalog #G7573) and substrate were equilibrated to room temperature, and enzyme/substrate Recombinant Firefly Luciferase/Beetle Luciferin was reconstituted. The cell plates were equilibrated to room temperature for 30 minutes, then lysed by addition of an equivalent volume of the Celltiter-Glo Reagent. […] The plates were read on a Victor Wallac II using Luminescence protocol modified to read 0.1 s per well. The luminescence reading assesses the ATP content, which correlates directly with cell number such that the reading as a function of compound concentration is used to determine the IC50 value.

SMILES | inhibition of cells with c-Kit mutations in the catalytic region [1] | IC50 [2]
Cc1ccc(NC(=O)c2ccc(CN3CCN(C)CC3)cc2)cc1Nc1nccc(-c2cccnc2)n1 [ST1571] | did not inhibit the cells | –
FC(F)(F)c1ccc(CNc2ccc(Cc3c[nH]c4ncccc34)cn2)cc1 [Compound 1-3, [5-(1H-Pyrrolo[2,3-b]pyridin-3-ylmethyl)-pyridin-2-yl]-(4-trifluoromethyl-benzyl)-amine] | – | < 1000 nM
